Assay results from ChEMBL document CHEMBL1909046, “DrugMatrix in vitro pharmacology data”.

Key:
[1] = target: T1, Type-2 angiotensin II receptor (Homo sapiens, UniProt P50052); assay type: cell-based; conditions: cho-k1; further: in other assays of this panel Not Active means under 50% inhibition at 10 µM
T1 sequence (P50052 whole entry): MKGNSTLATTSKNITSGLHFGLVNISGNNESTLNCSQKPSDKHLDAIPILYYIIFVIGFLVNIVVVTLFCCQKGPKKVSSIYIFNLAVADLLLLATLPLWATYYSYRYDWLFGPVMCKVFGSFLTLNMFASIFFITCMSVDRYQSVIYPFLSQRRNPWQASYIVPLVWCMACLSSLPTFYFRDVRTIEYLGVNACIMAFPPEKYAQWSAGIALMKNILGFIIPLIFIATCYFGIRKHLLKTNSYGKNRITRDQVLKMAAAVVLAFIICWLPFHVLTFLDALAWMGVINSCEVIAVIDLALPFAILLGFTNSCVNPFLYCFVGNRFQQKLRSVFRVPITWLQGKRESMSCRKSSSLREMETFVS

[2] = target: T2, C-X-C chemokine receptor type 2 (Homo sapiens, UniProt P25025); assay type: cell membranes, Membrane; conditions: cho-k1; further: in other assays of this panel Not Active means under 50% inhibition at 10 µM
T2 sequence (P25025 whole entry): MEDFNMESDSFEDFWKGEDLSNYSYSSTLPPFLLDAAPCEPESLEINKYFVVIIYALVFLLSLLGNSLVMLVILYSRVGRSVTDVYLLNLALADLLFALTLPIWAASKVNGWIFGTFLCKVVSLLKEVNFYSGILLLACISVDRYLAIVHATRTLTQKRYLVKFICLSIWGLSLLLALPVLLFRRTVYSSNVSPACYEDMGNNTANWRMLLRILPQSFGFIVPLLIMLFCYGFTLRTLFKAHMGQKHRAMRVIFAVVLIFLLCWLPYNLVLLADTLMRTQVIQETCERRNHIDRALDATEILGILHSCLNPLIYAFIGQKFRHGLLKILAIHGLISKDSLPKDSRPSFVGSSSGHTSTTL

D(1A) dopamine receptor = D(1A) dopamine receptor (Homo sapiens, UniProt P21728); assay: DRUGMATRIX: Dopamine D1 radioligand binding (ligand: [3H] SCH-23390); assay type: cell membranes, CHO, Membrane; conditions: cho; Not Active = under 50% inhibition at 10 µM
Melanocortin receptor 4 = Melanocortin receptor 4 (Homo sapiens, UniProt P32245); assay type: cell membranes, HEK293, Membrane; conditions: hek293; further: in other assays of this panel Not Active means under 50% inhibition at 10 µM
[3] = target: Kappa-type opioid receptor (Homo sapiens, UniProt P41145); assay: DRUGMATRIX: Opiate kappa (OP2, KOP) radioligand binding (ligand: [3H] Diprenorphine); assay type: cell membranes, HEK293, Membrane; conditions: hek293; Not Active = under 50% inhibition at 10 µM
[4] = target: T3, Angiotensin-converting enzyme (Oryctolagus cuniculus, UniProt P12822); assay type: tissue-based, Lung;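 further: enzymatic inhibition of angiotensin-converting enzyme measured with FAPGG as the substrate; in other assays of this panel Not Active means under 50% inhibition at 10 µM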
T3 sequence (P12822 whole entry): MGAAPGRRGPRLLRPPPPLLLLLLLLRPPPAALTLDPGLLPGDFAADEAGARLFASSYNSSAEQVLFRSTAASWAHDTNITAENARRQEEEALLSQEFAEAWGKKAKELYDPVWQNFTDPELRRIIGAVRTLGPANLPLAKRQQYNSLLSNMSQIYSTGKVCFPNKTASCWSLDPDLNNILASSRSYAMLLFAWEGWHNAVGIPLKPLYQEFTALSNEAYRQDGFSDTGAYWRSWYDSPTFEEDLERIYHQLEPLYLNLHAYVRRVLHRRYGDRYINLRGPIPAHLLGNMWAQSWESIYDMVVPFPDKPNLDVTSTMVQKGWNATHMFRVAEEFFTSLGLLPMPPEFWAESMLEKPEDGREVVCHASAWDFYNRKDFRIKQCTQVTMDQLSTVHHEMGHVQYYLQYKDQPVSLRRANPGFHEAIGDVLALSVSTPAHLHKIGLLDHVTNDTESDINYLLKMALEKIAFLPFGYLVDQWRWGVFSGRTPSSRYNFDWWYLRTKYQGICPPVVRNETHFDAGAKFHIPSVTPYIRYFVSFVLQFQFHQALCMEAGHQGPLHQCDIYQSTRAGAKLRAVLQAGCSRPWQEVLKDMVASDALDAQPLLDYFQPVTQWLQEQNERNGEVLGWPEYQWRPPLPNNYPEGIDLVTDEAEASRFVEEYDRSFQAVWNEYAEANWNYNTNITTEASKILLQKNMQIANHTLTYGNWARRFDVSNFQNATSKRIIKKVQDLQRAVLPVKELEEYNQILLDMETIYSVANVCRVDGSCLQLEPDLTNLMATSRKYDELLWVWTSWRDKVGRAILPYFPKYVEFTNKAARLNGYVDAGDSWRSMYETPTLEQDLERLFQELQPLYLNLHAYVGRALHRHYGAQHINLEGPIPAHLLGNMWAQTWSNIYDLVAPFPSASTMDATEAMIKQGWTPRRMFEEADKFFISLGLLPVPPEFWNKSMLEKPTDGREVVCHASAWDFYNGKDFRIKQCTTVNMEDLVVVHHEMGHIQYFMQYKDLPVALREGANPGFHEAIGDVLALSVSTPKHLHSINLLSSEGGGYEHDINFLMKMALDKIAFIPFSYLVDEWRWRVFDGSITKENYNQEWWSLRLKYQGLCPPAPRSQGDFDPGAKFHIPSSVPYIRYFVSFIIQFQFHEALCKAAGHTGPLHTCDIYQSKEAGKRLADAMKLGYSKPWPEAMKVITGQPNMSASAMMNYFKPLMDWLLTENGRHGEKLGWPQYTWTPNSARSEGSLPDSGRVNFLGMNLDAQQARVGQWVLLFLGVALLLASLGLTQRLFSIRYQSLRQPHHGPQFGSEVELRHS

[5] = target: Mitogen-activated protein kinase 14 (Homo sapiens, UniProt Q16539); set-up: species or system Escherichia coli
Estrogen receptor = target: T4, Estrogen receptor (Homo sapiens, UniProt P03372); conditions: sf9; further: in other assays of this panel Not Active means under 50% inhibition at 10 µM
T4 sequence (P03372 whole entry): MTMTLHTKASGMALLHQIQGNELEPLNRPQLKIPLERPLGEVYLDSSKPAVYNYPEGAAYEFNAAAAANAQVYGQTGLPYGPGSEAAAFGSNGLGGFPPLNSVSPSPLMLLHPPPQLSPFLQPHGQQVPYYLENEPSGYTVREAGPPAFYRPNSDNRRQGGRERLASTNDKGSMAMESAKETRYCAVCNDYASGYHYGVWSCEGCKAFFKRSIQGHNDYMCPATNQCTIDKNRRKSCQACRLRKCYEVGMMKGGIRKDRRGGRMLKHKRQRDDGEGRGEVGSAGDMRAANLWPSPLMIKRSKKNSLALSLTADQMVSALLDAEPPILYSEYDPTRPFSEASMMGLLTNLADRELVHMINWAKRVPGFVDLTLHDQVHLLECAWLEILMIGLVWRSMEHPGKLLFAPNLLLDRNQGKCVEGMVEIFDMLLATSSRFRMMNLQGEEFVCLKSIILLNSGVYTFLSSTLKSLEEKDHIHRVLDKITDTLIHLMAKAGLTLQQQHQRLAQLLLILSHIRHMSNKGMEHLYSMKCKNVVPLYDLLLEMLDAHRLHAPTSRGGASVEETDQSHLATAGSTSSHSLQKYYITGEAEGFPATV

Measured: IC50

Sequence of D(1A) dopamine receptor (P21728 whole entry): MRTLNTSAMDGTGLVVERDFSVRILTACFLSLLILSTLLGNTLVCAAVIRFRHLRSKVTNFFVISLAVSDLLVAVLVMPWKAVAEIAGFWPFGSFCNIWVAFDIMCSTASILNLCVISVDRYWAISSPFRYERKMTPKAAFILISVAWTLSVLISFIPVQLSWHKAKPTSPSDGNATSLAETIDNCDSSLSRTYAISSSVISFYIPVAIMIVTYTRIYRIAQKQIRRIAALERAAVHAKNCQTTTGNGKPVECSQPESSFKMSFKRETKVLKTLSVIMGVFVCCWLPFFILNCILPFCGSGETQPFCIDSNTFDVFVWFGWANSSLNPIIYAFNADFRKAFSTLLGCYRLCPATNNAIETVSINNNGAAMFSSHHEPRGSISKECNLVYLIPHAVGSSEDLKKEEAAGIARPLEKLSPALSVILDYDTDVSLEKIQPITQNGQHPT
Sequence of Mitogen-activated protein kinase 14 (Q16539 whole entry): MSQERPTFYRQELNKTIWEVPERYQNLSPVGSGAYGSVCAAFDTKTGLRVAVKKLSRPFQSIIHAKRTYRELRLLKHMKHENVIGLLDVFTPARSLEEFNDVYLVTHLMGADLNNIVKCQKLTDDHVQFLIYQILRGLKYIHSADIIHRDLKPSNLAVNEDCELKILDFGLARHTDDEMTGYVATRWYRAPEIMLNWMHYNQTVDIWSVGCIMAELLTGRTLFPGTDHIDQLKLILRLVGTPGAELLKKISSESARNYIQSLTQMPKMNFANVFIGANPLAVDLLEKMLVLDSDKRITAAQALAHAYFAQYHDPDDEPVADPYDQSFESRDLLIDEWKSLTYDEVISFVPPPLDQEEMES
Sequence of Kappa-type opioid receptor (P41145 whole entry): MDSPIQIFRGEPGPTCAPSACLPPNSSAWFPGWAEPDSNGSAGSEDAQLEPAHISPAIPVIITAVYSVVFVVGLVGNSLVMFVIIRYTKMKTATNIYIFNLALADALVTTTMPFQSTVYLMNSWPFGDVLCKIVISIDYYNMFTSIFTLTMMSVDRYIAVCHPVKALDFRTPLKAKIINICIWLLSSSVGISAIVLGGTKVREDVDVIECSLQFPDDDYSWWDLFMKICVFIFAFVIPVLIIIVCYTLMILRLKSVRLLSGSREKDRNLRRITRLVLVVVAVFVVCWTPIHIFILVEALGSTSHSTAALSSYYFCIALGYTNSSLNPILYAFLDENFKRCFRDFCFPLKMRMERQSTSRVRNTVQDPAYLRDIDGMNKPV
Sequence of Melanocortin receptor 4 (P32245 whole entry): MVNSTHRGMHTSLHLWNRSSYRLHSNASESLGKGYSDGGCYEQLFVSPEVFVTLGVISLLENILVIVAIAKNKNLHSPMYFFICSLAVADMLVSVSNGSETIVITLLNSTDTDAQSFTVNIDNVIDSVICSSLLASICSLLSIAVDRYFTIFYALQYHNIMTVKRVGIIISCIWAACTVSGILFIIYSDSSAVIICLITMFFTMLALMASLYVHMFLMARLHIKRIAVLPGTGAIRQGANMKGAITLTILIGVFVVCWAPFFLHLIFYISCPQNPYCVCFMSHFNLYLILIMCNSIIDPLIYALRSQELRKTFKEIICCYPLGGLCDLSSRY

CCOc1ccc(NC(C)=O)cc1 [PHENACETIN]
Not Active: all assays above

Cc1ccc(N(CC2=NCCN2)c2cccc(O)c2)cc1 [PHENTOLAMINE]
Not Active: all assays above

CC(O)CO (centres undefined) [PROPYLENE GLYCOL]
Not Active: all assays above
